From the supplement of paper PMC10331698
± gives the standard deviation of the averaged measurements.

Legend:
[1] = compound: OCC(F)(F)C(F)(F)C(F)(F)C(F)(F)C(F)(F)C(F)(F)C(F)(F)C(F)(F)C(F)(F)C(F)(F)C(F)(F)F [11:1 Fluorotelomer alcohol]; test: level (log10 ratio to DMSO vehicle control); higher = higher biomarker level / cell amount than vehicle control; conditions: in DMSO
Method: (§1)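 BioMAP Diversity Plus panel of 12 human primary cell co-culture systems (3C, 4H, LPS, SAg, BT, BF4T, BE3C, CASM3C, HDF3CGF, KF3CT, MyoF, Mphg). Compounds were added 1 h before stimulation and left for 24 h (MyoF 48 h; BT 72 h for soluble read-outs or 6 d for IgG). Biomarkers were read by ELISA, cytotoxicity by SRB, PBMC viability and proliferation by Alamar Blue. Each well value was divided by the mean of 8 DMSO control wells on the same plate and log10 transformed; duplicate blinded samples were tested at 4 concentrations.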

[2] = compound: O=P(O)(O)CCC(F)(F)C(F)(F)C(F)(F)C(F)(F)C(F)(F)C(F)(F)F [2-(Perfluorohexyl)ethylphosphonic acid]; test: as above; conditions: in DMSO
Method: as §1

| Test System | level (log10) ([1]; 1100 nM) | level (log10) ([1]; 3300 nM) | level (log10) ([1]; 10000 nM) | level (log10) ([2]; 6700 nM) | level (log10) ([2]; 20000 nM) | level (log10) ([2]; 60000 nM) |
| --- | --- | --- | --- | --- | --- | --- |
| BE3C:uPA | -0.0155 ± 0.013 | -0.0405 ± 0.0078 | -0.0175 ± 0.0035 | -0.016 ± 0.0099 | -0.004 ± 0.0071 | 0.0075 ± 0.012 |
| KF3CT:uPA | -0.0115 ± 0.015 | -0.0335 ± 0.00071 | -0.023 ± 0.016 | 0.007 ± 0.0057 | 0.013 ± 0.011 | 0.015 ± 0.02 |
| KF3CT:CXCL10/IP-10 | 0.003 ± 0.0042 | -0.002 ± 0.0057 | 0.0085 ± 0.0035 | -0.009 ± 0.0057 | 0.0035 ± 0.0078 | 0.0045 ± 0.005 |
| MyoF:TIMP-1 | 0.0095 ± 0.05 | 0.015 ± 0.048 | 0.011 ± 0.02 | -0.035 ± 0.017 | 0.013 ± 0.0042 | 0.028 ± 0.023 |
| CASM3C:Proliferation | 0.0145 ± 0.0078 | -0.0185 ± 0.005 | 0.0565 ± 0.0092 | -0.0385 ± 0.0064 | -0.05 ± 0.013 | -0.06 ± 0.0085 |
| lMphg:CXCL8/IL-8 | 0.111 ± 0.042 | 0.127 ± 0.033 | 0.0445 ± 0.0064 | -0.008 ± 0.0028 | -0.0315 ± 0.033 | 0.0385 ± 0.026 |
| KF3CT:CXCL8/IL-8 | 0 ± 0.013 | 0.015 | 0.014 ± 0.025 | -0.021 ± 0.0071 | 0.002 ± 0.0014 | 0.0355 ± 0.0035 |
| CASM3C:CD141/Thrombomodulin | -0.0155 ± 0.012 | -0.012 ± 0.025 | -0.0155 ± 0.005 | 0.027 ± 0.017 | 0.0185 ± 0.011 | 0.016 ± 0.0042 |
| 3C:CD54/ICAM-1 | 0.011 ± 0.03 | 0.0305 ± 0.028 | 0.0385 ± 0.018 | -0.0165 ± 0.012 | -0.018 ± 0.0014 | -0.0095 ± 0.005 |
| HDF3CGF:CXCL10/IP-10 | -0.0435 ± 0.015 | -0.0725 ± 0.0064 | -0.039 ± 0.02 | 0.014 ± 0.0028 | 0.0505 ± 0.0078 | 0.0525 ± 0.037 |
| HDF3CGF:PAI-I | 0.037 ± 0.0014 | 0.0515 ± 0.012 | 0.029 ± 0.075 | -0.027 ± 0.023 | -0.027 ± 0.0014 | -0.0925 ± 0.021 |
| lMphg:SRB-Mphg | -0.039 ± 0.0014 | -0.105 ± 0.0085 | -0.205 ± 0.0085 | -0.029 ± 0.023 | -0.0255 ± 0.026 | -0.0125 ± 0.032 |
| CASM3C:M-CSF | -0.026 ± 0.044 | 0.006 ± 0.031 | 0.017 ± 0.0099 | 0.0025 ± 0.005 | 0.0115 ± 0.011 | -0.0055 ± 0.037 |
| HDF3CGF:EGFR | 0.034 ± 0.024 | 0.044 ± 0.064 | 0.0275 ± 0.083 | -0.012 ± 0.034 | -0.0255 ± 0.005 | 0.0195 ± 0.025 |
| KF3CT:SRB | -0.01 ± 0.0057 | -0.0285 ± 0.005 | -0.014 ± 0.0057 | -0.0015 ± 0.0035 | -0.011 ± 0.0028 | -0.007 ± 0.013 |
| HDF3CGF:CXCL9/MIG | 0.009 | -0.0145 ± 0.00071 | 0.009 ± 0.05 | -0.003 ± 0.0099 | 0.008 ± 0.017 | -0.006 ± 0.0057 |
| HDF3CGF:TIMP-2 | 0.001 ± 0.0042 | -0.045 ± 0.016 | -0.0325 ± 0.013 | 0.0095 ± 0.042 | 0.0365 ± 0.036 | 0.0305 ± 0.036 |
| MyoF:alpha-SM Actin | -0.0025 ± 0.015 | -0.0195 ± 0.03 | 0.0045 ± 0.018 | 0.037 ± 0.079 | 0.0415 ± 0.067 | 0.0575 ± 0.063 |
| BE3C:Keratin 8/18 | 0.0065 ± 0.04 | -0.016 ± 0.035 | 0.018 ± 0.025 | -0.012 ± 0.0071 | -0.0175 ± 0.0021 | 0.0115 ± 0.03 |
| lMphg:CD106/VCAM-1 | 0.0045 ± 0.005 | -0.001 ± 0.0014 | -0.0015 ± 0.0035 | -0.001 ± 0.0028 | 0.006 ± 0.016 | -0.002 ± 0.038 |

| Test System | level (log10) ([1]; 1100 nM) | level (log10) ([1]; 3300 nM) | level (log10) ([1]; 10000 nM) | level (log10) ([2]; 6700 nM) | level (log10) ([2]; 20000 nM) | level (log10) ([2]; 60000 nM) |
| --- | --- | --- | --- | --- | --- | --- |
| lMphg:CD62E/E-Selectin | 0.0715 ± 0.011 | 0.084 ± 0.024 | 0.118 ± 0.012 | -0.015 ± 0.013 | -0.017 ± 0.0042 | 0.075 ± 0.0085 |
| BE3C:PAI-I | -0.045 ± 0.057 | -0.0855 ± 0.054 | -0.0555 ± 0.07 | -0.036 ± 0.0028 | -0.0065 ± 0.012 | 0.052 ± 0.04 |
| CASM3C:Serum Amyloid A | -0.0025 ± 0.044 | -0.0045 ± 0.0078 | 0.0045 ± 0.016 | 0.004 ± 0.023 | -0.0045 ± 0.0035 | 0.0235 ± 0.0092 |
| CASM3C:PAI-I | -0.001 ± 0.0071 | -0.0055 ± 0.005 | -0.0005 ± 0.015 | -0.0075 ± 0.00071 | -0.0055 ± 0.005 | 0.007 ± 0.013 |
| HDF3CGF:Collagen III | 0.2 ± 0.0021 | 0.168 ± 0.057 | 0.171 ± 0.0042 | 0.0135 ± 0.0078 | 0.0075 ± 0.018 | -0.0305 ± 0.012 |
| MyoF:CD106/VCAM-1 | -0.0055 ± 0.037 | -0.0075 ± 0.022 | -0.0025 ± 0.00071 | 0.0025 ± 0.011 | 0.01 ± 0.0014 | -0.001 |
| CASM3C:CD87/uPAR | 0.0055 ± 0.025 | -0.004 ± 0.021 | 0.0085 ± 0.032 | -0.0295 ± 0.022 | -0.025 ± 0.014 | -0.002 ± 0.0071 |
| HDF3CGF:CD54/ICAM-1 | 0.001 ± 0.0071 | -0.0075 ± 0.021 | -0.012 ± 0.0014 | 0.045 ± 0.04 | 0.0145 ± 0.059 | 0.0065 ± 0.044 |
| MyoF:CXCL8/IL-8 | -0.0155 ± 0.035 | -0.0145 ± 0.037 | 0 ± 0.04 | -0.013 ± 0.013 | 0.018 ± 0.018 | 0.0795 ± 0.018 |
| lMphg:CD40 | 0.0005 ± 0.036 | 0.005 ± 0.042 | -0.357 ± 0.028 | -0.0155 ± 0.0021 | -0.0165 ± 0.00071 | -0.012 ± 0.041 |
| BE3C:MMP-1 | -0.0275 ± 0.018 | -0.0685 ± 0.015 | -0.077 | 0.002 ± 0.017 | 0.0005 ± 0.026 | 0.052 ± 0.075 |
| KF3CT:CXCL9/MIG | 0.0015 ± 0.0035 | -0.004 | 0.005 ± 0.011 | 0.0055 ± 0.0021 | -0.001 ± 0.0099 | 0.006 ± 0.0071 |
| CASM3C:CXCL9/MIG | 0.0005 ± 0.0035 | -0.002 ± 0.0028 | 0.014 ± 0.021 | 0.0095 ± 0.025 | 0.005 ± 0.033 | 0.0335 ± 0.066 |
| lMphg:IL-1alpha | 0.057 ± 0.025 | 0.039 ± 0.0085 | -0.12 ± 0.076 | -0.0265 ± 0.021 | -0.029 ± 0.024 | 0.0075 ± 0.084 |
| 3C:CD142/Tissue Factor | 0.028 ± 0.024 | 0.074 ± 0.034 | 0.0865 ± 0.0092 | 0.0325 ± 0.0078 | 0.04 ± 0.035 | 0.119 ± 0.0021 |
| CASM3C:IL-6 | -0.0065 ± 0.00071 | -0.022 ± 0.025 | 0.005 ± 0.02 | -0.0285 ± 0.005 | -0.0425 ± 0.018 | -0.0095 ± 0.025 |
| MyoF:bFGF | 0.002 ± 0.0071 | 0.008 ± 0.014 | 0.004 ± 0.021 | -0.0415 ± 0.011 | -0.0285 ± 0.00071 | -0.0255 ± 0.021 |
| lMphg:CCL2/MCP-1 | 0.0125 ± 0.0078 | 0.0295 ± 0.035 | 0.0535 ± 0.0021 | -0.004 ± 0.0071 | 0.01 ± 0.0042 | -0.0105 ± 0.005 |
| CASM3C:CXCL8/IL-8 | -0.0025 ± 0.0035 | -0.006 | -0.007 ± 0.064 | -0.0185 ± 0.013 | -0.0015 ± 0.0021 | 0.0145 ± 0.005 |
| CASM3C:HLA-DR | 0.0075 ± 0.016 | 0.0015 ± 0.00071 | 0.0095 ± 0.0035 | 0.0045 ± 0.015 | 0.015 ± 0.023 | 0.0345 ± 0.046 |
